Measured values taken from the NIST ThermoML archive (doi:10.1016/j.jct.2009.01.006).

Experiments:
[1] = 303.15 K; for speed of sound: Linear variable-path acoustic interferometer
[2] = refractive index (Na D-line) (dimensionless); details: 298.15 K; 101.33 kPa; Liquid; Standard Abbe refractometry
[3] = xn = mol fraction of the nth substance listed; details: 303.15 K, 101 kPa, Liquid, Direct dilatometry
[4] = φn = volume fraction of the nth substance listed; details: 303.15 K, 101 kPa, Liquid; for speed of sound: Linear variable-path acoustic interferometer

CC(=O)CC(C)C [4-methylpentan-2-one]
[1], Liquid
Details | mass density [kg/m3] | speed of sound [m/s]
101 kPa | 791.24 | 1168
101.33 kPa | 791.25 | 1172

Details | refractive index
[2] | 1.3935

CC(=O)CC(C)C [4-methylpentan-2-one] + CN1CCCC1=O
Details | excess molar volume [m3/mol] | mass density [kg/m3] | speed of sound [m/s]
[3], x2 = 0.0682 | -1.09e-07 | – | –
[3], x2 = 0.1202 | -1.82e-07 | – | –
[3], x2 = 0.2327 | -2.88e-07 | – | –
[3], x2 = 0.3164 | -3.49e-07 | – | –
[3], x2 = 0.3727 | -3.78e-07 | – | –
[3], x2 = 0.4616 | -4.11e-07 | – | –
[3], x2 = 0.5111 | -4.22e-07 | – | –
[3], x2 = 0.5711 | -4.24e-07 | – | –
[3], x2 = 0.6703 | -4.15e-07 | – | –
[3], x2 = 0.7739 | -3.58e-07 | – | –
[3], x2 = 0.8589 | -2.73e-07 | – | –
[3], x2 = 0.9208 | -1.79e-07 | – | –
[3], x2 = 0.9675 | -9.3e-08 | – | –
[4], φ2 = 0 | – | 791.24 | 1168
[4], φ2 = 0.0946 | – | 814.41 | 1198
[4], φ2 = 0.1879 | – | 836.88 | 1232
[4], φ2 = 0.2615 | – | 854.5 | 1259
[4], φ2 = 0.3961 | – | 886.44 | 1310
[4], φ2 = 0.4444 | – | 897.82 | 1332
[4], φ2 = 0.6087 | – | 936.2 | 1385
[4], φ2 = 0.7236 | – | 962.58 | 1422
[4], φ2 = 0.8232 | – | 985.02 | 1456
[4], φ2 = 0.8989 | – | 1001.74 | 1491

CN1CCCC1=O [N-methylpyrrolidone]
[1]
Details | mass density, 101 kPa [kg/m3] | mass density, 101.33 kPa [kg/m3] | speed of sound, 101.33 kPa [m/s]
Crystal | – | 1023.4 | –
Liquid | 1023.4 | – | 1552

Details | refractive index
[2] | 1.4674

CN1CCCC1=O [N-methylpyrrolidone] + CC(=O)CC(C)C
[4], φ1 = 1
Details | mass density [kg/m3] | speed of sound [m/s]
– | 1023.4 | 1552

CN1CCCC1=O [N-methylpyrrolidone] + CCC(=O)CC
[4], φ1 = 1
Details | mass density [kg/m3] | speed of sound [m/s]
– | 1023.4 | 1552

CN1CCCC1=O [N-methylpyrrolidone] + CCC(C)=O
Details | speed of sound [m/s]
[4], φ1 = 1 | 1552

CN1CCCC1=O [N-methylpyrrolidone] + CCCC(C)=O
[4], φ1 = 1
Details | mass density [kg/m3] | speed of sound [m/s]
– | 1023.4 | 1552

CN1CCCC1=O [N-methylpyrrolidone] + O=C1CCCCC1
[4], φ1 = 1
Details | mass density [kg/m3] | speed of sound [m/s]
– | 1023.4 | 1552

CCC(C)=O [butanone]
[1], Liquid
Details | mass density [kg/m3] | speed of sound [m/s]
101 kPa | 794.51 | 1167
101.33 kPa | 794.5 | 1168

Details | refractive index
[2] | 1.377

CCC(C)=O [butanone] + CN1CCCC1=O
Details | excess molar volume [m3/mol] | speed of sound [m/s]
[3], x2 = 0.0705 | -7.1e-08 | –
[3], x2 = 0.1436 | -1.42e-07 | –
[3], x2 = 0.2097 | -1.89e-07 | –
[3], x2 = 0.2854 | -2.44e-07 | –
[3], x2 = 0.4102 | -2.93e-07 | –
[3], x2 = 0.5043 | -3.02e-07 | –
[3], x2 = 0.5795 | -2.96e-07 | –
[3], x2 = 0.6942 | -2.56e-07 | –
[3], x2 = 0.8068 | -1.89e-07 | –
[3], x2 = 0.9134 | -9.8e-08 | –
[3], x2 = 0.9545 | -5.1e-08 | –
[4], φ2 = 0 | – | 1167
[4], φ2 = 0.1517 | – | 1214
[4], φ2 = 0.2207 | – | 1245
[4], φ2 = 0.2988 | – | 1282
[4], φ2 = 0.426 | – | 1345
[4], φ2 = 0.5205 | – | 1391
[4], φ2 = 0.5952 | – | 1421
[4], φ2 = 0.7078 | – | 1456
[4], φ2 = 0.8167 | – | 1483
[4], φ2 = 0.9184 | – | 1519

O=C1CCCCC1 [cyclohexanone]
[1], Liquid
Details | mass density [kg/m3] | speed of sound [m/s]
101 kPa | 937.58 | 1386
101.33 kPa | 937.55 | 1385

Details | refractive index
[2] | 1.4501

O=C1CCCCC1 [cyclohexanone] + CN1CCCC1=O
Details | excess molar volume [m3/mol] | mass density [kg/m3] | speed of sound [m/s]
[3], x2 = 0.0657 | 2.7e-08 | – | –
[3], x2 = 0.1238 | 4.6e-08 | – | –
[3], x2 = 0.2207 | 7.1e-08 | – | –
[3], x2 = 0.3217 | 9e-08 | – | –
[3], x2 = 0.4262 | 1.13e-07 | – | –
[3], x2 = 0.5178 | 1.21e-07 | – | –
[3], x2 = 0.5918 | 1.18e-07 | – | –
[3], x2 = 0.7236 | 1.09e-07 | – | –
[3], x2 = 0.7984 | 9.4e-08 | – | –
[3], x2 = 0.9166 | 5.2e-08 | – | –
[3], x2 = 0.9604 | 3.2e-08 | – | –
[4], φ2 = 0 | – | 937.58 | 1386
[4], φ2 = 0.1156 | – | 947.92 | 1392
[4], φ2 = 0.2076 | – | 954.74 | 1402
[4], φ2 = 0.3053 | – | 962.9 | 1415
[4], φ2 = 0.4073 | – | 971.45 | 1426
[4], φ2 = 0.4984 | – | 979.17 | 1438
[4], φ2 = 0.5729 | – | 985.58 | 1454
[4], φ2 = 0.7078 | – | 997.22 | 1480
[4], φ2 = 0.7856 | – | 1004.04 | 1496
[4], φ2 = 0.9104 | – | 1015.17 | 1522

CCCC(C)=O [pentan-2-one]
[1], Liquid
Details | mass density [kg/m3] | speed of sound [m/s]
101 kPa | 796.54 | 1202
101.33 kPa | 796.58 | 1197

Details | refractive index
[2] | 1.3883

CCCC(C)=O [pentan-2-one] + CN1CCCC1=O
Details | excess molar volume [m3/mol] | mass density [kg/m3] | speed of sound [m/s]
[3], x2 = 0.0776 | -1.11e-07 | – | –
[3], x2 = 0.1284 | -1.74e-07 | – | –
[3], x2 = 0.2108 | -2.81e-07 | – | –
[3], x2 = 0.2852 | -3.59e-07 | – | –
[3], x2 = 0.3669 | -4.39e-07 | – | –
[3], x2 = 0.4655 | -4.98e-07 | – | –
[3], x2 = 0.5205 | -5.21e-07 | – | –
[3], x2 = 0.5851 | -5.28e-07 | – | –
[3], x2 = 0.6353 | -5.29e-07 | – | –
[3], x2 = 0.7406 | -4.68e-07 | – | –
[3], x2 = 0.8612 | -3.15e-07 | – | –
[3], x2 = 0.9366 | -1.67e-07 | – | –
[3], x2 = 0.9769 | -7.6e-08 | – | –
[4], φ2 = 0 | – | 796.54 | 1202
[4], φ2 = 0.1165 | – | 824.33 | 1231
[4], φ2 = 0.193 | – | 842.58 | 1254
[4], φ2 = 0.3417 | – | 877.77 | 1308
[4], φ2 = 0.4382 | – | 900.32 | 1345
[4], φ2 = 0.493 | – | 913.03 | 1367
[4], φ2 = 0.6094 | – | 939.74 | 1403
[4], φ2 = 0.7189 | – | 964.15 | 1429
[4], φ2 = 0.8475 | – | 991.98 | 1467
[4], φ2 = 0.9297 | – | 1009.18 | 1498

CCC(=O)CC [pentan-3-one]
[1], Liquid
Details | mass density [kg/m3] | speed of sound [m/s]
101 kPa | 804.57 | 1198
101.33 kPa | 804.62 | 1201

Details | refractive index
[2] | 1.3902

CCC(=O)CC [pentan-3-one] + CN1CCCC1=O
Details | excess molar volume [m3/mol] | mass density [kg/m3] | speed of sound [m/s]
[3], x2 = 0.0634 | -1.55e-07 | – | –
[3], x2 = 0.1526 | -2.89e-07 | – | –
[3], x2 = 0.2446 | -3.57e-07 | – | –
[3], x2 = 0.3948 | -3.98e-07 | – | –
[3], x2 = 0.4476 | -4.12e-07 | – | –
[3], x2 = 0.5371 | -4.2e-07 | – | –
[3], x2 = 0.591 | -4.22e-07 | – | –
[3], x2 = 0.7146 | -4.13e-07 | – | –
[3], x2 = 0.7962 | -3.45e-07 | – | –
[3], x2 = 0.9124 | -2.31e-07 | – | –
[3], x2 = 0.9626 | -1.06e-07 | – | –
[4], φ2 = 0 | – | 804.57 | 1198
[4], φ2 = 0.1401 | – | 837.52 | 1230
[4], φ2 = 0.2265 | – | 857.08 | 1252
[4], φ2 = 0.3711 | – | 889.22 | 1297
[4], φ2 = 0.423 | – | 900.7 | 1316
[4], φ2 = 0.5121 | – | 920.45 | 1347
[4], φ2 = 0.5666 | – | 932.49 | 1365
[4], φ2 = 0.6937 | – | 960.46 | 1415
[4], φ2 = 0.79 | – | 981.3 | 1452
[4], φ2 = 0.904 | – | 1004.83 | 1502
